Reference: US20220280508A1 (priority 2019, published 2022)
Entries after “also recorded” stand apart in the source; their conditions may differ. Marks after values point to notes of the source that are not given here.

Legend:
iNOS = type: cell-based, Mouse
influenza = conditions: human, in vivo
PR8 influenza virus = conditions: mouse, in vivo
Pseudomonas aeruginosa = type: in vivo, BAL B/C male mice; conditions: 14 days
Staphylococcus aureus = type: in vivo, ICR mice; conditions: n = 10
Streptococcus pneumoniae = type: in vivo, ICR mice; conditions: n = 10
HSV-1 = type: in vivo, Kunming mice; conditions: n 15
[1] = system: Mycoplasma pneumoniae (ATCCFH15531); type: in vivo, BALB/C mice

**Q.** How did the “expression of iNOS in macrophages induced by LPS” value (shortened to “expression of iNOS”) (iNOS) turn out when `O=C1O[C@H]([C@@H](O)CO)C(=O)C1=O` [dehydroascorbic acid] was run?
**A.** almost no effect

**Q.** Which results are given for 6S-5-methyltetrahydrofolate calcium?
**A.** expression of iNOS in macrophages induced by LPS (iNOS): did not affect expression of iNOS; also recorded: almost no effect; Mean disappearance time: Cough (influenza): 35.7 h; Mean disappearance time: Dizziness and fullness in head (influenza): 28.5 h; Mean disappearance time: Dry and itchy throat (influenza): 15.0 h; Mean disappearance time: Fatigue (influenza): 14.1 h; Mean disappearance time: Headache (influenza): 13.7 h; Mean disappearance time: Inappetence (influenza): 13.0 h; Mean disappearance time: Intolerance of cold and cold limbs (influenza): 10.0 h; Mean disappearance time: Low fever (influenza): 10.0 h; Mean disappearance time: Muscular soreness (influenza): 14.9 h; Mean disappearance time: Nasal stuffiness (influenza): 23.0 h; Mean disappearance time: Running nose (influenza): 20.6 h; Mean disappearance time: Sneezing (influenza): 18.1 h; Mean disappearance time: Sore throat (influenza): 29.4 h; Mean time: Basic rehabilitation (influenza): 27.4 h; Mean time: Complete rehabilitation (influenza): 32.9 h; disappearance time of symptoms: Dry and itchy throat (influenza): 15 h; disappearance time of symptoms: Inappetence (influenza): 13 h; disappearance time of symptoms: Intolerance of cold and cold limbs (influenza): 10 h; disappearance time of symptoms: Low fever (influenza): 10 h; time in which the patients' influenza almost all healed (influenza): ≤ 2 days; condition of the administration group (body weight, body temperature, food intake, water intake, survival curves) (PR8 influenza virus): greatly improved; secretion of NO in macrophages (Macrophage RAW264.7): promote the secretion of NO; expression of macrophages and inflammatory factors induced by LPS (TNF-α, IL-1α, IL-6): no significant effect

**Q.** How did the “survival of mice infected with the fatal dose of Pseudomonas aeruginosa” value (Pseudomonas aeruginosa) turn out when `C[C@@H](O)[C@H]1C(=O)N2C(C(=O)O)=C(S[C@@H]3CN[C@H](C(=O)N(C)C)C3)[C@H](C)[C@H]12` [meropenem] was run?
**A.** 100%

**Q.** penicillin was tested. Which “survival of mice infected with the fatal dose of Pseudomonas aeruginosa” value (Pseudomonas aeruginosa) did it give?
**A.** all the mice in the penicillin group died

**Q.** Which results are given for `CC1(C)S[C@@H]2[C@H](NC(=O)[C@H](N)c3ccc(O)cc3)C(=O)N2[C@H]1C(=O)O` [Amoxicillin, amoxicillin]?
**A.** Survival rate, Staphylococcus aureus (Staphylococcus aureus): 70** %; Survival rate, Streptococcus pneumoniae (Streptococcus pneumoniae): 50* %

**Q.** For `N[C@@H](CCC(=O)N[C@@H](CS)C(=O)NCC(=O)O)C(=O)O` [glutathione, reference compound], which “expression of iNOS” value (iNOS) is on record?
**A.** did not affect expression of iNOS; also recorded: almost no effect

**Q.** Which “expression of iNOS” value (iNOS) does the source give for `NC(=O)c1ccc[n+]([C@@H]2O[C@H](COP(=O)([O-])O)[C@@H](O)[C@H]2O)c1` [NMN, nicotinamide mononucleotide] here?
**A.** did not affect expression of iNOS; also recorded: almost no effect

**Q.** For `Nc1nc2c(ncn2COCCO)c(=O)[nH]1` [Acyclovir, acyclovir], which Mortality (HSV-1) is on record?
**A.** 60%

**Q.** And the “Number of deaths, 48 h” value (HSV-1)?
**A.** 0

**Q.** What about the “Number of deaths, D4” value (HSV-1) of the same compound?
**A.** 4

**Q.** And the “Number of deaths, D7” value (HSV-1)?
**A.** 5

**Q.** How did the “Histopathological examination of the lung tissue” value ([1]; 10 days) turn out when `CC[C@H]1OC(=O)[C@H](C)[C@@H](O[C@H]2C[C@@](C)(OC)[C@@H](O)[C@H](C)O2)[C@H](C)[C@@H](O[C@@H]2O[C@H](C)C[C@H](N(C)C)[C@H]2O)[C@](C)(O)C[C@@H](C)CN(C)[C@H](C)[C@@H](O)[C@]1(C)O` [azithromycin] was run?
**A.** Mild interstitial pneumonia

**Q.** What about the Splenic index ([1]; mouse, in vivo) of the same compound?
**A.** 4.515 ± 0.982 mg/g

**Q.** What about the Thymic index ([1]; mouse, in vivo) of the same compound?
**A.** 3.818 ± 1.232 mg/g
